For one molecule, MIC and protein carbonyl levels results are on record in patent publication US20260355318A1, “MOLECULAR MACHINES FOR TREATMENT OF CANCER, FUNGAL INFECTIONS, OR BACTERIAL INFECTIONS” (priority 2022, published 2026).

Experiment [1] relates to B. megaterium. As to the kind of experiment: MIC, B. megaterium. Format: cell-based, Bacillus megaterium. As to conditions: Priestia megaterium, 405 nm light. The method, then: The appropriate volume of an MM stock at 8 mM necessary to achieve a concentration ranging from 0.3125 to 40 μM was pipetted into a 2 mL microcentrifuge tube to which 1 mL of cell suspension prepared as previously described was added. Corresponding negative controls (DMSO only) were prepared in the same way. The mixture was gently mixed by pipetting and incubated in the dark at 30 or 37 ° C, depending on the strain, for 30 min with agitation (220 rpm). Afterward, MM- or DMSO-treated cells were dispensed in one well of a 24-well plate positioned in the center of the light beam (405 nm LED Light, Prizmatix, UHP—F-5-405) placed at the appropriate distance necessary to achieve the desired light intensity of 304 mW cm-2, 146 mW cm2 or 87 mW cm2, as measured with a handheld digital power meter console coupled to an S415C thermal power sensor head (Thorlabs, Newton, MA, USA). The temperature during irradiation was monitored using a thermocouple probe (Model SC-TT-K-30-36-PP; Omega Engineering, Inc., Stanford, CT, USA). Samples were agitated during irradiation. Dark controls were prepared as previously described except that no irradiation was provided. […]

The subject of experiment [2] is E. coli. As to the kind of experiment: Protein carbonyl levels, E. coli. As to conditions: 1×MIC MM 1. The format is cell-based, Escherichia coli.

For `C[C@@H]1Cc2ccc3ccccc3c2/C1=C1\c2ccccc2Sc2cc(NCCN(C)C)ccc21` [MM 1, N^1N^1-dimethyl-N^2-(9-(2-methyl-2,3-dihydro-1H-cyclopenta[a]naphthalen-1-ylidene)-9H-thioxanthen-3-yl) ethane-1,2-diamine], the MIC – broadly, the least concentration at which growth counts as inhibited – in experiment [1] worked out at 0.078 µM. For the same molecule, the protein carbonyl levels entry in experiment [2] is reported as “not significantly changed”.
